Assays:
[1] = biological target: T1, Nuc1 (reconstituted nucleosome with five match sequences for Bi-PIP1) / recombinant human P300 (Homo sapiens, UniProt Q09472); assay: HAT reaction-in vitro ChIP-qPCR with recombinant P300, acetylation of Nuc1; assay type: biochemical; settings: mixture of Nuc1 and Nuc2
T1 construct: 10 nM recombinant human P300 (amino acids 965-1810); purchased BPS Bioscience 50071
T1 sequence (Q09472 965-1810): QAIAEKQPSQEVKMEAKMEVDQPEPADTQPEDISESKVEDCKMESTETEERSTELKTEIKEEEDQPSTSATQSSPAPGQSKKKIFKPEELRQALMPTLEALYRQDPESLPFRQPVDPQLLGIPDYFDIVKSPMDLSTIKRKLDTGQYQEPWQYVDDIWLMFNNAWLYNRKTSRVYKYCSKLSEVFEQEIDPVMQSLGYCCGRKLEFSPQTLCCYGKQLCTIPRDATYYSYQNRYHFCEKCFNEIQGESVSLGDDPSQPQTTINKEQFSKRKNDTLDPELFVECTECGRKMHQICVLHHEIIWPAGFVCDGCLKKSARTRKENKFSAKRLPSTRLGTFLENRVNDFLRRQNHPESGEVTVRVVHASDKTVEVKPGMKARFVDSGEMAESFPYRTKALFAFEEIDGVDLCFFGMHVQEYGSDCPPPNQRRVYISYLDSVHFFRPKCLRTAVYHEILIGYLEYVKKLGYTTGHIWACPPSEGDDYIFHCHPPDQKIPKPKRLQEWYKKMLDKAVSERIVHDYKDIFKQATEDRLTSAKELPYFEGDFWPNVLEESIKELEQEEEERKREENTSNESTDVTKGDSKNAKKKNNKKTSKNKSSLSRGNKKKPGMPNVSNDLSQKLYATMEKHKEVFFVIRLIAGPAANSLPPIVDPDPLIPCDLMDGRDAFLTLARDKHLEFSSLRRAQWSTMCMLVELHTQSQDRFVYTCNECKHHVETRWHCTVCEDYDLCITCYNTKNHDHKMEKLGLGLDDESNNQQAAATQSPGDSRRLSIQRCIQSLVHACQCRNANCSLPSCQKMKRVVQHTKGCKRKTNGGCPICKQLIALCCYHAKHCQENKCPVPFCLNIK
From the text: (§1) To test sequence-selective histone acetylation by Bi-PIP, a biochemical assay (HAT reaction-in vitro ChIP-qPCR) was established by combining HAT reaction followed by immunoprecipitation utilizing reconstituted nucleosomes as reported previously (Nguyen et al., Nat. Methods 2014, 11, 834-40) and quantitative polymerase chain reaction (qPCR) (FIGS. 2A to 2C).
(§2) Mononucleosomes were reconstituted utilizing a salt-dialysis method from a histone octamer and DNA templates that each have a Widom 601 nucleosome positioning sequence and five PIP-binding sequences: 5′-AACAGTCA-3′ for Bi-PIP1 and 5′-AGCCGCCA-3′ for Bi-PIP2 (FIG. 2A). Gel electrophoresis confirmed that the majority of DNA templates were successfully formed on the nucleosome. […]
(§3) To a HAT reaction (15 μL), 85 μL of an AB buffer (20 mM Tris-HCl, pH 7.5, 50 mM NaCl, 5 mM EDTA) containing 1/500 volume of anti-acetylated H3 (Abcam, ab47915) was added and rotated for 1 hour at room temperature. […] The DNA solution was diluted, and amount of the precipitated each nucleosome was measured by qPCR utilizing SYBR FAST qPCR Kit (Kapa Bioscience) on LightCycler 480 (Roche Diagnostics GmbH) (FIG. 2B). Cp values were determined by the 2nd derivative maximum method and relative […] amount was calculated by the ΔΔCp method. […]

HEK293T cells = assay: Transcriptome analysis (microarray) of cells treated with Bi-PIPs; assay type: cell-based, human; settings: 1 μM, 15 hours; for downregulated transcripts: criteria <−2-fold change and <0.05 P value vs vehicle; for most upregulated protein-coding gene among uniquely activated transcripts: criteria >1.5- or <−1.5-fold change, FIG. 7A; for upregulated transcripts: criteria >2-fold change and <0.05 P value vs vehicle; for change in global gene expression (in words) / transcripts commonly upregulated by both Bi-PIP1 and Bi-PIP2: microarray
Procedure: Considering the fundamental role of P300/CBP as the transcriptional coactivator to activate gene expression, transcriptome analyses of total RNA extracted from cells (HEK293T cells) treated with Bi-PIPs were performed. […]
HEK293T line was purchased from ATCC and maintained in DMEM (Thermo Fisher Scientific) supplemented with 10% (v/v) fetal bovine serum (FBS, Sigma Aldrich) at 37° C. with 5% CO2. For the Bi-PIP treatment, the cells were seeded on 24 well plates (2×10^5 cells/well). After one day, 1 μM of each Bi-PIP and 4 μM of Endo-Porter (10% polyethylene glycol form, Gene Tools) were added. As a vehicle, 0.1% DMSO (v/v) was used. After 15 hours of Bi-PIP treatment, RNA was extracted using FastGene™ RNA Basic Kit (Nippon Genetics) following manufacture's instruction.
The quality of RNA was checked with Bioanalyzer (Agilent Technologies) using Agilent RNA 6000 Pico Kit (Agilent Technologies). The total RNA was processed by GeneChip WT PLUS Reagent Kit (Affymetrix) and hybridized to Human Gene 2.1 ST Array Strip (Affymetrix) using GeneChip Hybridization, Wash, and Stain Kit (Affymetrix). Fluidics and scanning were conducted in GeneAtlas System (Affymetrix) using GeneChip Hybridization, Wash, and Stain Kit (Affymetrix). Data normalization, summarization and comparison were performed using Transcriptome Analysis Console v4 (Affymetrix).

[2] = biological target: T2, Nuc2 (reconstituted nucleosome with five match sequences for Bi-PIP2) / recombinant human P300 (Homo sapiens, UniProt Q09472); assay: HAT reaction-in vitro ChIP-qPCR with recombinant P300, acetylation of Nuc2; assay type: biochemical; settings: 100 nM compound, mixture of Nuc1 and Nuc2
T2 construct: 10 nM recombinant human P300 (amino acids 965-1810); purchased BPS Bioscience 50071
T2 sequence (Q09472 965-1810): T1 sequence (Q09472 965-1810)
From the text: as §1, §2, §3

[3] = biological target: T3, Nuc1 histones / recombinant human P300 (Homo sapiens, UniProt Q09472); assay: HAT reaction followed by LC-MS/MS analysis of histone peptides; assay type: biochemical; settings: 2.5 μM vs 0 compound, Nuc1 500 nM, P300 50 nM, Ac-CoA 10 μM
T3 construct: 10 nM recombinant human P300 (amino acids 965-1810); purchased BPS Bioscience 50071
T3 sequence (Q09472 965-1810): T1 sequence (Q09472 965-1810)
Procedure: Histone acetylation with Bi-PIP was directly confirmed by mass spectrometry analysis. After HAT reaction using Nuc1 (500 nM), B PIP1 (0 or 2.5 μM), recombinant human P300 (50 nM) and Ac-CoA (10 μM), the histones were processed through propionylation of unmodified lysine, tryptic digestion, and propionylation of terminal amine. The resulting peptides were analyzed by liquid chromatography-tandem mass spectrometry (LC-MS/MS).

[4] = tested on: Nuc1 / HeLa nuclear extract; assay: HAT reaction-in vitro ChIP-qPCR with HeLa nuclear extract as HAT resource, Nuc1; assay type: biochemical, human; settings: 100 nM compound; HeLa nuclear extract 2% v/v; FIG. 6

acetylation of Nuc1 (anti-acetylated H3 ChIP-qPCR) ([1]; 100 nM compound, P300 0, 1, 3, 10, 30, 100 nM, FIG. 3) | acetylation of target nucleosome Nuc1 (anti-acetylated H3 ChIP-qPCR) ([1]; 100 nM each compound, 10 nM P300 (amino acids 965-1810), FIG. 4) | acetylation of Nuc2 (anti-acetylated H3 ChIP-qPCR) ([2]; P300 0, 1, 3, 10, 30, 100 nM, FIG. 3) | acetylation in the N-terminal region of histone H4 (H4K5ac, H4K8ac, H4K12ac) [3] | signal intensity of peptides containing acetyl lysine at the N-terminal tail region of H3 (H3K14ac, H3K18ac, H3K23ac, H3K27ac, H3K36ac) [3] | Compound | downregulated transcripts (HEK293T cells) | most upregulated protein-coding gene among uniquely activated transcripts (HEK293T cells) | upregulated transcripts (HEK293T cells) | change in global gene expression (in words) (HEK293T cells) | transcripts commonly upregulated by both Bi-PIP1 and Bi-PIP2 (HEK293T cells) | acetylation of Nuc1 in nuclear extract [4] | acetylation of Nuc2 (anti-acetylated H3 ChIP-qPCR) ([2]; 10 nM P300 (amino acids 965-1810), FIG. 5)
induced intensive acetylation | Nuc1-selective acetylation | acetylation was not induced | acetylation was promoted | increase in the signal intensity | Cc1noc(C)c1-c1ccc2c(c1)nc(CCc1ccc(OCCNC(=O)CCCCC(=O)NCCOCCOCC(=O)NCCOCCOCC(=O)Nc3cn(C)c(C(=O)Nc4cc(C(=O)Nc5cc(C(=O)NCCC(=O)Nc6cn(C)c(C(=O)Nc7cc(C(=O)NCCCC(=O)Nc8cc(C(=O)Nc9cc(C(=O)NCCC(=O)Nc%10cn(C)c(C(=O)Nc%11cc(C(=O)Nc%12cc(C(=O)NCCCN(C)C)n(C)c%12)n(C)c%11)n%10)n(C)c9)n(C)c8)n(C)c7)n6)n(C)c5)n(C)c4)n3)cc1)n2CCN1CCOCC1 [Bi-PIP1] | 258 | NTS | 473 | greater transcriptome changes | 247 | enhanced acetylation of Nuc1 | 
 |  |  |  |  | Cc1noc(C)c1-c1ccc2c(c1)nc(CCc1ccc(OCCNC(=O)CCCCC(=O)NCCOCCOCC(=O)NCCOCCOCC(=O)Nc3cn(C)c(C(=O)Nc4cn(C)c(C(=O)NCCC(=O)Nc5cn(C)c(C(=O)Nc6cn(C)c(C(=O)Nc7cc(C(=O)NCCCC(=O)Nc8cn(C)c(C(=O)Nc9cc(C(=O)NCCC(=O)Nc%10cn(C)c(C(=O)Nc%11cc(C(=O)Nc%12cc(C(=O)NCCCN(C)C)n(C)c%12)n(C)c%11)n%10)n(C)c9)n8)n(C)c7)n6)n5)n4)n3)cc1)n2CCN1CCOCC1 [Bi-PIP2] | 137 | IER5L | 446 | greater transcriptome changes | 247 |  | selective acetylation of Nuc2
